Data on 1 compound can be found in the NIST ThermoML archive (doi:10.1021/acs.jced.8b00632).

The conditions of data set [1]: Crystal; DTA.
Data set [2] in a line: Molar enthalpy of transition or fusion. The settings on record: Crystal; DSC.

Molecules are shown by their SMILES. Numbers after ± are expanded uncertainties.

For `O=C(Nc1ccc(F)cc1F)c1cccnc1Oc1cccc(C(F)(F)F)c1`, in data set [1], the Normal melting temperature worked out at 162.37 ± 0.61 °C. Besides, in data set [2], the “Molar enthalpy of transition or fusion” value was found to be 9.42 ± 0.22 kcal/mol.
